EC50 data for 31 compounds are collected here from patent US10351547B2, “Somatostatin modulators and uses thereof” (priority 2016, dated 2019).

The first test deals with human SSTR2 (Homo sapiens (Human), UniProt P30874). Briefly: Human SSTR2 intracellular cAMP functional assay for agonists (HTRF). The format is cell-based.
Chain of human SSTR2 (P30874 whole entry): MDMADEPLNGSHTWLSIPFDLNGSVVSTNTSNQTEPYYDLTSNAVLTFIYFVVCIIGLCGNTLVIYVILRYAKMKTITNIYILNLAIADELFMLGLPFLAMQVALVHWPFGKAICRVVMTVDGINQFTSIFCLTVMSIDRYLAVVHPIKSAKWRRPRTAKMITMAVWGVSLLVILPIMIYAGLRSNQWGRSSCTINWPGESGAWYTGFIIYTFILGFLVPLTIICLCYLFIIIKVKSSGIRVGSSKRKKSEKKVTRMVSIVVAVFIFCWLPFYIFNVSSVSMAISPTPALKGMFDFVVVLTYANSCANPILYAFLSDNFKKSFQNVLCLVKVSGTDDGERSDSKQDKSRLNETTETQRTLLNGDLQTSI
Conditions: not given
Put shortly:
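Cells bearing human SSTR2 exposed to compound for 20 minutes at 37 °C; after lysis, cAMP measured by time-resolved fluorescence (HTRF) and converted via a standard curve. EC50 calculated from cAMP versus compound concentration.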
For orientation: TR-FRET usually uses a lanthanide donor and a delayed reading to cut background.
Usually EC50 stands for the concentration at which the effect is half-maximal. `Cc1cc(F)cc(-c2cnc3ccc(-c4cc(F)cc(C#N)c4O)cc3c2N2CC(CNC3CCOC3)C2)c1` (stereo not shown) [2-45, 5-fluoro-3-[3-(3-fluoro-5-methylphenyl)-4-(3-{[(oxolan-3-yl)amino]methyl}azetidin-1-yl)quinolin-6-yl]-2-hydroxybenzonitrile] showed a 50% effective concentration (EC50) of 10 to 100 nM. The compound `Cc1cc(F)cc(-c2cnc3ccc(-c4cc(F)cc(C#N)c4O)cc3c2N2CC(CN3CCC(F)(F)C3)C2)c1` [2-47, 3-(4-{3-[(3,3-difluoropyrrolidin-1-yl)methyl]azetidin-1-yl}-3-(3-fluoro-5-methylphenyl)quinolin-6-yl)-5-fluoro-2-hydroxybenzonitrile] yielded a concentration for a half-maximal effect (EC50) of 100 to 1000 nM. `Cc1cc(F)cc(-c2cnc3ccc(-c4cc(F)cc(C#N)c4O)cc3c2N2CC(CN3CCCCC3)C2)c1` [2-50, 5-fluoro-3-[3-(3-fluoro-5-methylphenyl)-4-[3-(piperidin-1-ylmethyl)azetidin-1-yl]quinolin-6-yl]-2-hydroxybenzonitrile]: the concentration giving a half-maximal response (EC50) is 10 to 100 nM. On the same count and under the same terms, then `Cc1cc(F)cc(-c2cnc3ccc(-c4cc(F)cc(C#N)c4O)cc3c2N2CC(CNCC(C)O)C2)c1` (stereo not shown) [2-51, 5-fluoro-3-[3-(3-fluoro-5-methylphenyl)-4-(3-{[(2-hydroxypropyl)amino]methyl}azetidin-1-yl)quinolin-6-yl]-2-hydroxybenzonitrile], with 10 to 100 nM; and `CCCNCC1CN(c2c(-c3cc(C)cc(F)c3)cnc3ccc(-c4cc(F)c(O)c(F)c4)cc23)C1` [2-52, 2,6-difluoro-4-[3-(3-fluoro-5-methylphenyl)-4-{3-[(propylamino)methyl]azetidin-1-yl}quinolin-6-yl]phenol], with 10 to 100 nM; and `N#Cc1cccc(-c2ccc3ncc(-c4cc(F)cc(F)c4)c(N4CCC(N)CC4)c3c2)c1OCC(=O)O` [2-56, 2-{2-[4-(4-aminopiperidin-1-yl)-3-(3,5-difluorophenyl)quinolin-6-yl]-6-cyanophenoxy}acetic acid], with 10 to 100 nM. As to `N#Cc1cccc(-c2ccc3ncc(-c4cc(F)cc(F)c4)c(N4CCC(N)CC4)c3c2)c1OCCCC(=O)O` [2-57, 4-{2-[4-(4-aminopiperidin-1-yl)-3-(3,5-difluorophenyl)quinolin-6-yl]-6-cyanophenoxy}butanoic acid], the half-maximal effective concentration (EC50) was in the range of 10 to 100 nM. `CO[C@H]1CN(c2c(-c3cc(F)cc(F)c3)cnc3ccc(-c4cccc(C#N)c4O)cc23)CC[C@H]1N` [2-61, 3-{4-[(3S,4R)-4-amino-3-methoxypiperidin-1-yl]-3-(3,5-difluorophenyl)quinolin-6-yl}-2-hydroxybenzonitrile]: the 50% effective concentration (EC50) fell in the range of 10 to 100 nM. The compound `CO[C@@H]1CN(c2c(-c3cc(F)cc(F)c3)cnc3ccc(-c4cccc(C#N)c4O)cc23)CC[C@@H]1N` [2-66, 3-{4-[(3R,4S)-4-amino-3-methoxypiperidin-1-yl]-3-(3,5-difluorophenyl)quinolin-6-yl}-2-hydroxybenzonitrile] showed a concentration giving a half-maximal response (EC50) of 10 to 100 nM. `N#Cc1cccc(-c2ccc3ncc(-c4cc(F)cc(OC5COC5)c4)c(N4CCC(N)CC4)c3c2)c1O` [2-69, 3-[4-(4-aminopiperidin-1-yl)-3-[3-fluoro-5-(oxetan-3-yloxy)phenyl]quinolin-6-yl]-2-hydroxybenzonitrile] displayed an EC50 of 10 to 100 nM. Compound `CO/N=C/c1cc(F)cc(-c2cnc3ccc(-c4cccc(C#N)c4O)cc3c2N2CCC(N)CC2)c1` [2-70, 3-[4-(4-aminopiperidin-1-yl)-3-{3-fluoro-5-[(1E)-(methoxyimino)methyl]phenyl}quinolin-6-yl]-2-hydroxybenzonitrile] registered an EC50 of 10 to 100 nM. Turning to `N#Cc1cccc(-c2ccc3ncc(-c4cc(F)cc(CN5CC(F)(F)C5)c4)c(N4CCC(N)CC4)c3c2)c1O` [2-71, 3-[4-(4-aminopiperidin-1-yl)-3-{3-[(3,3-difluoroazetidin-1-yl)methyl]-5-fluorophenyl}quinolin-6-yl]-2-hydroxybenzonitrile], the half-maximal effective concentration (EC50) fell in the range of 100 to 1000 nM. Same read-out and setting: then `N#Cc1cccc(-c2ccc3ncc(-c4cc(F)cc(F)c4)c(N4CCC(N)CC4)c3c2)c1OC1COC1` [2-73, 3-[4-(4-aminopiperidin-1-yl)-3-(3,5-difluorophenyl)quinolin-6-yl]-2-(oxetan-3-yloxy)benzonitrile], with 10 to 100 nM; and `NC1CCN(c2c(-c3cc(F)cc(F)c3)cnc3ccc(-c4cncc(F)c4OC4COC4)cc23)CC1` [2-74, 1-[3-(3,5-difluorophenyl)-6-[5-fluoro-4-(oxetan-3-yloxy)pyridin-3-yl]quinolin-4-yl]piperidin-4-amine], with 100 to 1000 nM. Still for that read-out and setting: the figure for `NC(=O)c1cnc(N2CCC2)c(-c2ccc3ncc(-c4cc(F)cc(F)c4)c(N4CCC(N)CC4)c3c2)c1` [2-76, 5-[4-(4-aminopiperidin-1-yl)-3-(3,5-difluorophenyl)quinolin-6-yl]-6-(azetidin-1-yl)pyridine-3-carboxamide] is 100 to 1000 nM; for `CCON=Cc1cc(F)cc(-c2cnc3ccc(-c4cccc(C#N)c4O)cc3c2N2CCC(N)CC2)c1` [2-79, 3-[4-(4-aminopiperidin-1-yl)-3-{3-[(ethoxyimino)methyl]-5-fluorophenyl}quinolin-6-yl]-2-hydroxybenzonitrile] it is 100 to 1000 nM.

Staying with this test, now noted: CHO-K1 cells stably expressing human SSTR2; NKH477-stimulated cAMP; read-out: EC50 (inhibition of cAMP activities via human SST2R).
With `CCCNCC1CN(c2c(-c3cc(C)cc(F)c3)cnc3ccc(-c4c(F)ccc(F)c4O)cc23)C1` [2-46, 3,6-difluoro-2-[3-(3-fluoro-5-methylphenyl)-4-{3-[(propylamino)methyl]azetidin-1-yl}quinolin-6-yl]phenol], the EC50 is under 10 nM.

In the case of `Cc1cc(F)cc(-c2cnc3ccc(-c4cc(F)cc(C#N)c4O)cc3c2N2CC(CN3CC[C@@H](F)C3)C2)c1` [2-48, 5-fluoro-3-[3-(3-fluoro-5-methylphenyl)-4-(3-{[(3R)-3-fluoropyrrolidin-1-yl]methyl}azetidin-1-yl)quinolin-6-yl]-2-hydroxybenzonitrile], the concentration giving a half-maximal response (EC50) was under 10 nM. Still for that read-out and setting: then `Cc1cc(F)cc(-c2cnc3ccc(-c4cc(F)cc(C#N)c4O)cc3c2N2CC(CN3CC[C@H](F)C3)C2)c1` [2-49, 5-fluoro-3-[3-(3-fluoro-5-methylphenyl)-4-(3-{[(3 S)-3-fluoropyrrolidin-1-yl]methyl}azetidin-1-yl)quinolin-6-yl]-2-hydroxybenzonitrile], with under 10 nM. Still for that read-out and setting: the figure for `COCOc1c(C#N)cc(F)cc1-c1ccc2ncc(-c3cc(C)cc(F)c3)c(N3CC(CNCCCO)C3)c2c1` [2-53, 5-fluoro-3-[3-(3-fluoro-5-methylphenyl)-4-(3-{[(3-hydroxypropyl)amino]methyl}azetidin-1-yl)quinolin-6-yl]-2-(methoxymethoxy)benzonitrile] is under 10 nM.

As to `Cc1cc(F)cc(-c2cnc3ccc(-c4cc(F)cc(C#N)c4O)cc3c2N2CC(CNCCCO)C2)c1` [2-54, 5-fluoro-3-[3-(3-fluoro-5-methylphenyl)-4-(3-{[(3-hydroxypropyl)amino]methyl}azetidin-1-yl)quinolin-6-yl]-2-hydroxybenzonitrile], the EC50 was under 10 nM. `CCCNCC1CN(c2c(-c3cc(C)cc(F)c3)cnc3ccc(-c4cc(F)c5[nH]c(=O)[nH]c5c4)cc23)C1` [2-55, 4-fluoro-6-[3-(3-fluoro-5-methylphenyl)-4-{3-[(propylamino)methyl]azetidin-1-yl}quinolin-6-yl]-2,3-dihydro-1H-1,3-benzodiazol-2-one]: the concentration giving a half-maximal response (EC50) is under 10 nM. The same measure, in the same setting: then `N#Cc1cccc(-c2ccc3ncc(-c4cc(F)cc(F)c4)c(N4CC[C@@H](N)[C@H](F)C4)c3c2)c1O` [2-59, 3-{4-[(3R,4R)-4-amino-3-fluoropiperidin-1-yl]-3-(3,5-difluorophenyl)quinolin-6-yl}-2-hydroxybenzonitrile], with under 10 nM.

Take `COCOc1c(C#N)cccc1-c1ccc2ncc(-c3cc(F)cc(F)c3)c(N3CC[C@H](N)[C@H](OC)C3)c2c1` [2-62, 3-{4-[(3R,4S)-4-amino-3-methoxypiperidin-1-yl]-3-(3,5-difluorophenyl)quinolin-6-yl}-2-(methoxymethoxy)benzonitrile]: the 50% effective concentration (EC50) was under 10 nM. As for `CC(=O)OCCOc1c(C#N)cccc1-c1ccc2ncc(-c3cc(F)cc(F)c3)c(N3CCC(N)CC3)c2c1` [2-64, 2-{2-[4-(4-aminopiperidin-1-yl)-3-(3,5-difluorophenyl)quinolin-6-yl]-6-cyanophenoxy}ethyl acetate], the EC50 was under 10 nM. Same read-out and setting: the figure for `N#Cc1cccc(-c2ccc3ncc(-c4cc(F)cc(F)c4)c(N4CCC(N)CC4)c3c2)c1OCCO` [2-65, 3-[4-(4-aminopiperidin-1-yl)-3-(3,5-difluorophenyl)quinolin-6-yl]-2-(2-hydroxyethoxy)benzonitrile] is under 10 nM.

As for `NC(=O)c1cccc(-c2ccc3ncc(-c4cc(F)cc(F)c4)c(N4CCC(N)CC4)c3c2)c1OC(CO)CO` [2-67, 3-[4-(4-aminopiperidin-1-yl)-3-(3,5-difluorophenyl)quinolin-6-yl]-2-[(1,3-dihydroxypropan-2-yl)oxy]benzamide], the EC50 is under 10 nM. For the compound `COCCOc1c(C#N)cccc1-c1ccc2ncc(-c3cc(F)cc(F)c3)c(N3CCC(N)CC3)c2c1` [2-72, 3-[4-(4-aminopiperidin-1-yl)-3-(3,5-difluorophenyl)quinolin-6-yl]-2-(2-methoxyethoxy)benzonitrile], the 50% effective concentration (EC50) is under 10 nM.

With `N#Cc1cnc(N2CCC2)c(-c2ccc3ncc(-c4cc(F)cc(F)c4)c(N4CCC(N)CC4)c3c2)c1` [2-75, 5-[4-(4-aminopiperidin-1-yl)-3-(3,5-difluorophenyl)quinolin-6-yl]-6-(azetidin-1-yl)pyridine-3-carbonitrile], the EC50 was under 10 nM. Take `N#Cc1cccc(-c2ccc3ncc(-c4cc(F)cc(F)c4)c(N4CCC(N)CC4)c3c2)c1N` [2-77, 2-amino-3-[4-(4-aminopiperidin-1-yl)-3-(3,5-difluorophenyl)quinolin-6-yl]benzonitrile]: the EC50 was under 10 nM.

Turning to `COCOc1c(C#N)cccc1-c1ccc2ncc(-c3cc(F)cc(F)c3)c(N3CCC(N)CC3)c2c1` [2-78, 3-[4-(4-aminopiperidin-1-yl)-3-(3,5-difluorophenyl)quinolin-6-yl]-2-(methoxymethoxy)benzonitrile], the EC50 was under 10 nM.
